Laboratory results taken from patent publication US20250205234A1, “ANTI-TUBERCULAR COMPOSITIONS” (priority 2022, published 2025).
Values after ≈ are worked out from the molar mass of the structure shown. Where two headings read alike, the source gives them in different places.

Legend:
[1] = tested on: E. coli UTI 189; assay: Biofilm assay, E. coli; assay type: cell-based, Escherichia coli; conditions: 3 h pre-formed biofilm; 3-9 μM GaMF1.39 or 1-3 μM BDQ; PBS or M9 glucose media
[2] = tested on: P. aeruginosa PAO1 WT; assay: Biofilm assay, P. aeruginosa; assay type: cell-based, Pseudomonas aeruginosa; conditions: 3 h pre-formed biofilm; 3-9 μM GaMF1.39 or 1-3 μM BDQ; PBS or M9 glucose media
[3] = tested on: M. smegmatis F-ATP synthase; assay type: biochemical; conditions: for Inhibition of ATP synthesis of reconstituted MsF-ATP synthase: compound at its IC50 concentration (BDQ 4 nM; GaMF1.39 90 nM)
[4] = tested on: M. bovis BCG; assay: microbe, parasite or virus in culture; assay type: cell-based; conditions: for MIC: Mycobacterium tuberculosis variant bovis BCG, BCG
[5] = tested on: transmembrane pH gradient of mycobacterial IMVs; assay: Proton translocation / uncoupling assay in IMVs (ACMA fluorescence quenching); assay type: biochemical, M. smegmatis; conditions: 2 mM NADH, uncoupler SF6847 as positive control
[6] = tested on: zebrafish embryos; assay: Toxicity testing using zebrafish embryos; assay type: in vivo; conditions: 9 μM, 48 hpf embryos, 5 days
Protocol: Zebrafish care and ethics statement: All Zebrafish experiments were approved by the NTU Institutional Animal Care and Use Committee under reference no #A20038. Experiments were done using wild-type AB zebrafish. The ages of the embryos are shown in hours post fertilization (hpf).
Dechorionated zebrafish wild-type embryos at 48 hpf (n=120) were used. The embryos were immersed respectively in 5 ml of E3 medium containing GaMF1.39 in 6-well plate for 5 days. DMSO was used as vehicle control. The embryos were observed under a microscope. […] The experiment was repeated twice with three replicates each.

[7] = tested on: M. bovis BCG; assay type: cell-based; conditions: 7 μM, 96 h, methylene blue
[8] = tested on: M. tuberculosis H37Rv-infected THP-1 cells; assay: THP-1 macrophage infection model, intracellular efficacy
[9] = tested on: M. bovis BCG; assay: microbe, parasite or virus in culture; assay type: cell-based; conditions: Mycobacterium tuberculosis variant bovis BCG, 120 h, read-out: minimal inhibitory concentration (MIC50)
[10] = tested on: M. smegmatis mc^2 155; assay type: cell-based
[11] = tested on: M. bovis BCG; assay type: cell-based
[12] = tested on: Mtb; conditions: Hotra et al. 2020; cited from earlier work
[13] = tested on: M. bovis BCG cells; assay: microbe, parasite or virus in culture; assay type: cell-based; conditions: Mycobacterium tuberculosis variant bovis BCG, read-out: IC50 intracellular ATP inhibition
[14] = Microsomal stability assay; assay type: in vitro ADME; conditions: pH 7.4; mouse liver microsomes
Protocol: Microsomal stability assay were outsourced and performed by Bioduro-Sundia Ltd, USA based on the following protocol as done in Obach, R. S., Drug Metab. Dispos., 1999, 27, 1350; McGinnity, D. F. & Riley, R. J., Biochem. Soc. Trans., 2001, 29, 135. Working solutions of each compound are prepared from 10 mM stock solution in DMSO diluted to a final concentration of 100 μM in 0.05 M phosphate buffer (pH 7.4). Aliquots of Liver Microsome working solution are transferred into 1.1 mL tubes using a multichannel pipette. Positive control (5 mixed) and test compound working solutions are transferred into the tubes. The mixtures are vortexed gently and then pre-incubated at 37° C. 5 mM NADPH were aliquoted into the tubes using a multichannel pipette and vortexed gently. At each time point of 0 min, 5 min, 15 min, 30 min and 60 min with NADPH or 0, 30 min and 60 min without NADPH, an aliquot is removed from each tube. […] Each compound is analyzed by reversed phase HPLC using a Kinetex 2.6μ C18 100 Å column (3.0 mm×30 mm, Phenomenex). […] The amount of parent compound is determined on the basis of the peak area ratio (compound area to IS area) for each time point. The estimation of Clint (in μL/min/mg protein) is calculated using the following equation: CLint (μLmin^−1 mg^−1)=ln(2)*1000/t1/2/protein concentration

[15] = target: mycobacterial F-ATP synthase (Mycobacterium bovis, UniProt A1KI93+A1KI97); conditions: read-out: IC50 NADH-driven ATP synthesis of IMVs, IMVs of M. bovis BCG; cited from earlier work
Chain of mycobacterial F-ATP synthase (Mycobacterium bovis, UniProt A1KI93+A1KI97) (A1KI93 whole entry, looked up): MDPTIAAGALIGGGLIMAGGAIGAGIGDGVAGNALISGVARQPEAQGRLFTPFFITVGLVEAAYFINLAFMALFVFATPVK
Chain of mycobacterial F-ATP synthase (Mycobacterium bovis, UniProt A1KI93+A1KI97) (A1KI97 whole entry, looked up): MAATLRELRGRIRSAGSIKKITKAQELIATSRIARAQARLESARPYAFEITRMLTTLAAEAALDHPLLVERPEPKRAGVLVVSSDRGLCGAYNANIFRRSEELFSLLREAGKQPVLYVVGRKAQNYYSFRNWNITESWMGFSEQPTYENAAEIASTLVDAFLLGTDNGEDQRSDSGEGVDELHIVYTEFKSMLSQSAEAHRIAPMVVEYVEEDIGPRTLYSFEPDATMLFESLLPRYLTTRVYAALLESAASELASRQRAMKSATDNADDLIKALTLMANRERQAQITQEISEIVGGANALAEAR

[16] = target: M. smegmatis 166M c-subunit mutant IMVs (Mycolicibacterium smegmatis, UniProt A0R201+A0R205+A0R206, I70M); assay: biochemical; conditions: read-out: IC50 ATP synthesis, 166M mutant IMVs
[17] = tested on: mycobacterial F-ATP synthase; conditions: IMVs of M. smegmatis, NADH; read-out: IC50 NADH-driven ATP synthesis of IMVs; cited from earlier work

## COc1nc2ccc(Br)cc2cc1[C@@H](c1ccccc1)[C@@](O)(CCN(C)C)c1cccc2ccccc12 [BDQ, bedaquiline, reference compound]
[1]
  Killing of planktonic or biofilm cells: No significant differences
[2]
  Killing of planktonic or biofilm cells: No significant differences
[3]
  Inhibition of ATP synthesis of reconstituted MsF-ATP synthase: ~51%

## CC(C)/N=c1\cc2n(-c3ccc(Cl)cc3)c3ccccc3nc-2cc1Nc1ccc(Cl)cc1 [Clofazamine, clofazimine]
[4]; Clofazamine alone
  MIC Drug B alone: 0.25 µM (≈ 0.118 µg/mL)
[4]; Clofazamine in combination with GaMF1.39
  MIC Drug B in combination: 0.125 µM

## CCNc1cc(C)nc(Nc2ccc3nc(-c4ccc(Cl)cc4)[nH]c3c2)n1 [GaMF1.39]
[5]
  Uncoupled proton pumping (ACMA quenching): lacked the ability to induce uncoupled proton pumping
[1]
  Killing of planktonic or biofilm cells: no killing of planktonic or biofilm cells
[6]
  Toxicity in zebrafish embryos (survival): no signs of toxicity-induced killing
[7]
  Oxygen consumption within the respiratory chain: unaffected
[8]; 3 and 9 μM, compared with initial inoculum (day 0)
  Intracellular efficacy, viable bacterial count (CFU/ml): showed a decrease in viable bacterial count
[8]; THP-1 macrophages treated with GaMF1.39
  Alteration of infected macrophages (microscopy): did not show any visible optical alteration of the membrane, cell form or cell size
[9]
  MIC50: 6.8 µM (≈ 2.58 µg/mL)
[10]
  Killing of M. smegmatis mc^2 155: killed
[4]; GaMF1.39 in combination with Clofazamine
  MIC Drug A in combination: 3 µM
[4]; GaMF1.39 in combination with Q203
  MIC Drug A in combination: 0.23 µM
[4]; 144 h, read-out: MIC Drug A alone
  MIC: 6.8 µM (≈ 2.58 µg/mL)
[11]; 8-fold its MIC50, up to 6 days, CFU
  Killing efficiency against M. bovis BCG: more efficient than its parental molecule GaMF1
[11]; GaMF1.39 10×MIC50, with or without Q203 100 nM, t=10 days
  Growth of M. bovis BCG cultures in killing kinetics experiment: inhibited the growth of M. bovis cells even after 10 days
[2]
  Killing of planktonic or biofilm cells: no killing of planktonic or biofilm cells
[12]
  MIC50 against Mtb: 3.0 µM (≈ 1.14 µg/mL)
[3]; GaMF1.39 at its IC50 concentration, no compound 35.2±2.3
  ATP synthesis activity of reconstituted MsF-ATP synthase with compound: 20.5±2.6 nmol·min^−1 (mg protein)^−1
[3]
  Inhibition of ATP synthesis of reconstituted MsF-ATP synthase: 42%
[13]
  IC50: 3300 nM
[14]
  half-life: 29.6 min
  microsomal CLint: 46.8 µL/min/mg
[15]
  IC50: 51.6 ± 1.35 nM
[16]
  IC50: 64 nM
[17]
  IC50: 90 ± 1.1 nM

## CCc1nc2ccc(Cl)cn2c1C(=O)NCc1ccc(N2CCC(c3ccc(OC(F)(F)F)cc3)CC2)cc1 [Q203, Telacebec]
[4]; read-out: MIC Drug B alone
  MIC: 0.001 µM (≈ 0.000557 µg/mL)
[4]; Q203 in combination with GaMF1.39
  MIC Drug B in combination: 0.0005 µM
